From patent US6657060B2, “Pyrimidine derivatives” (Hoffman-La Roche Inc., priority 2000, dated 2003)

Target: T1, recombinant mouse NPY5-receptor (mNPY5) (Mus musculus, UniProt O70342)
T1 construct: The full-length cDNA encoding the mouse NPY5 (mNPY5) receptor was amplified from mouse brain cDNA; expressed in transfected cells; membranes
T1 sequence (O70342 1-466): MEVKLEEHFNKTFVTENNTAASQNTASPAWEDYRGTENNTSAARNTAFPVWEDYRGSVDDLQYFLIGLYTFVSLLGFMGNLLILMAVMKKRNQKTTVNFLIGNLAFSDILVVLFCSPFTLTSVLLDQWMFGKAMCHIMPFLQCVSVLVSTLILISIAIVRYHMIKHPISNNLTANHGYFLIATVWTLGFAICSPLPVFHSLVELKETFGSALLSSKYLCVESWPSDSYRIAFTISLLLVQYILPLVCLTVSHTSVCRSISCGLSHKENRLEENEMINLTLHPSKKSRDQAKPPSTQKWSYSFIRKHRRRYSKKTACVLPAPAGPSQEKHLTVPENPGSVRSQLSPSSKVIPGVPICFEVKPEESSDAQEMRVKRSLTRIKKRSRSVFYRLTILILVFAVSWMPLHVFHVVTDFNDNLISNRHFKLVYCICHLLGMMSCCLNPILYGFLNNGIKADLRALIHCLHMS
Test: Radioligand competition binding
Settings: membranes of HEK293 cells expressing mNPY5; 100 pM [125I]labelled peptide YY (PYY); 1 h at 22° C.
Text: The full-length cDNA encoding the mouse NPY5 (mNPY5) receptor was amplified from mouse brain cDNA using specific primers, designed based on the published sequence, and Pfu DNA-Polymerase (Stratagene). The amplification product was subcloned into the mammalian expression vector pcDNA3 using Eco RI and XhoI restriction sites. Positive clones were sequenced and one clone, encoding the published sequence was selected for generation of stable cell clones.
Human embryonic kidney 293 (HEK293) cells were transfected with 10 μg mNPY5 DNA using the lipofectamine reagent (Gibco BRL) according to the manufacturer's instruction. Two days after transfection, geneticin selection (1 mg/ml) was initiated and several stable clones were isolated. One clone was further used for pharmacological characterization.
Human embryonic kidney 293 cells (HEK293), expressing recombinant mouse NPY5-receptor (mNPY5) were broken by three freeze/thawing cycles in hypotonic Tris buffer (5 mM, pH 7.4, 1 mM MgCl2), homogenized and centrifuged at 72,000×g for 15 min. The pellet was washed twice with 75 mM Tris buffer, pH 7.4, containing 25 mM MgCl2 and 250 mM sucrose, 0.1 mM phenylmethylsulfonylfluoride and 0.1 mM 1,10-pheneanthrolin, resuspended in the same buffer and stored in aliquots at −80° C. Protein was determined according to the method of Lowry using bovine serum albumine (BSA) as a standard. […]

Row | IC50 [nM] | SMILES
1 | 18 | Cc1cc(N2CCCC2)nc(/C=C/c2cccc(C#N)c2)n1 [Compound 20, (E)-3-[2-(4-methyl-6-pyrrolidin-1-yl-pyrimidin-2-yl)-vinyl]-benzonitrile]
2 | 30 | Cc1cc(N2CCCC2)nc(/C=C/c2ccc(F)cc2F)n1 [Compound 43, (E)-2-[2-(2,4-difluoro-phenyl)-vinyl]-4-methyl-6-pyrrolidin-1-yl-pyrimidine]
